{
  "source": "paper PMC6008299",
  "about": "“Impact of race on dose selection of molecular-targeted agents in early-phase oncology trials” (British Journal of Cancer, 2018)",
  "key": {"[1]": {"assay": "Pharmacokinetics in US cohort (U101)", "assay_type": "in vivo, human", "description": "(§1) In both studies, the PK profile of DS-7423 was characterised during cycle 1 on days 1 and 8. For PD analysis, glucose, C-peptide, and Akt phosphorylation were measured in platelet-rich plasma collected at predose, 1, 2, 4, 6, and 24 h after dosing on days 1 and 15. Tumour assessment was performed every two cycles using Response Evaluation Criteria in Solid Tumours (RECIST) version 1.1 in both studies. 18F-Fluoro-2-deoxy-D-glucose positron emission tomography ([18F]-FDG) was performed as an exploratory endpoint at baseline and on day 4.[10]\n(§2) The data cut-off for the primary analysis occurred after all patients had either discontinued the study or completed 6 months of study drug treatment. Descriptive statistics were provided for selected demographic, safety, PK, and PD data by dose and time as appropriate. Descriptive statistics on continuous data included means, medians, standard deviations, and ranges, while categorical data were summarised using frequency counts and percentages. No inferential analysis to compare dose levels was performed due to limited sample sizes. The WinNonlin software was used for PK analysis."}, "[2]": {"assay": "Pharmacokinetics, both studies", "assay_type": "in vivo, human", "from_the_text": "as §2, with “In both studies, the PK profile of DS-7423 was characterised during cycle 1 on days 1 and 8. […] The data” for “The data”"}, "tumour [18F]-FDG uptake": {"tested_on": "tumour [18F]-FDG uptake", "assay": "[18F]-FDG-PET metabolic response, US (Caucasian) patients", "assay_type": "in vivo, human", "conditions": "day 4", "description": "as §1"}, "advanced solid tumours": {"tested_on": "advanced solid tumours", "assay": "Tumour assessment RECIST 1.1, both studies", "assay_type": "in vivo, human", "conditions": "either study", "description": "as §1"}, "[3]": {"tested_on": "CYP2C8, CYP3A4, and CYP3A5", "design": "method as in printed", "conditions": "stated in discussion, ref not given; cited from earlier work"}, "glucose": {"tested_on": "glucose", "assay": "Pharmacodynamics: glucose after dosing", "assay_type": "in vivo, human", "conditions": "decreased toward baseline at 24 h", "description": "as §1"}, "Akt phosphorylation": {"tested_on": "Akt phosphorylation", "assay": "Pharmacodynamics: Akt phosphorylation in platelet-rich plasma", "assay_type": "in vivo, human", "conditions": "pre-treatment vs post-treatment, 32 patients", "description": "as §1"}, "[4]": {"conditions": "dose level 4, US cohort (n = 1)"}, "[5]": {"conditions": "dose level 8, US cohort (n = 1)"}, "[6]": {"conditions": "dose level 16, US cohort (n = 3)"}, "[7]": {"conditions": "dose level 160, US cohort (n = 4)"}, "[8]": {"conditions": "dose level 240, US cohort (n = 7)"}},
  "data": [
    {"compound": "CC(=O)N1CCN(c2nc3c(N4CCOCC4)nc(-c4cnc(N)nc4)nc3n2CC(F)(F)F)C[C@H]1C", "note": "[DS-7423]", "values": [
      {"measurement": "Mean AUCtau", "setting": "[1]; [4]", "value": 21.86, "unit": "ng·h/mL"},
      {"measurement": "Mean Cmax", "setting": "[1]; [4]", "value": 4, "unit": "ng/mL"},
      {"measurement": "T1/2", "setting": "[1]; [4]", "value": "6 to 7", "unit": "h"},
      {"measurement": "Tmax", "setting": "[1]; [4]", "value": "2 to 4", "unit": "h"},
      {"measurement": "Mean AUCtau", "setting": "[1]; [5]", "value": 131, "unit": "ng·h/mL"},
      {"measurement": "Mean Cmax", "setting": "[1]; [5]", "value": 20, "unit": "ng/mL"},
      {"measurement": "T1/2", "setting": "[1]; [5]", "value": "6 to 7", "unit": "h"},
      {"measurement": "Tmax", "setting": "[1]; [5]", "value": "2 to 4", "unit": "h"},
      {"measurement": "Mean AUCtau", "setting": "[1]; [6]", "value": 133.5, "unit": "ng·h/mL"},
      {"measurement": "Mean Cmax", "setting": "[1]; [6]", "value": 20, "unit": "ng/mL"},
      {"measurement": "T1/2", "setting": "[1]; [6]", "value": "6 to 7", "unit": "h"},
      {"measurement": "Tmax", "setting": "[1]; [6]", "value": "2 to 4", "unit": "h"},
      {"measurement": "Mean AUCtau", "setting": "[1]; [7]", "value": 1180.5, "unit": "ng·h/mL"},
      {"measurement": "Mean Cmax", "setting": "[1]; [7]", "value": 59, "unit": "ng/mL"},
      {"measurement": "T1/2", "setting": "[1]; [7]", "value": "6 to 7", "unit": "h"},
      {"measurement": "Tmax", "setting": "[1]; [7]", "value": "2 to 4", "unit": "h"},
      {"measurement": "Mean AUCtau", "setting": "[1]; [8]", "value": 1458.2, "unit": "ng·h/mL"},
      {"measurement": "Mean Cmax", "setting": "[1]; [8]", "value": 92.0, "unit": "ng/mL"},
      {"measurement": "T1/2", "setting": "[1]; [8]", "value": 12, "unit": "h"},
      {"measurement": "Tmax", "setting": "[1]; [8]", "value": "2 to 4", "unit": "h"},
      {"measurement": "median half-life", "setting": "[2]; 240-mg dose (MTD)", "value": 12, "unit": "h"},
      {"measurement": "Difference in AUC and Cmax between the two populations", "setting": "[2]; MTD of 240 mg, Caucasian vs Asian", "value": "no significant differences"},
      {"measurement": "median time to peak concentration (Tmax)", "setting": "[2]; across dose groups", "value": "2 to 4", "unit": "h"},
      {"measurement": "Drug accumulation", "setting": "[2]; predose concentrations days 15 and 21 of cycle 1 and day 1 of cycle 2", "value": "no remarkable drug accumulation"},
      {"measurement": "Patients with partial metabolic response ([18F]-FDG-PET)", "setting": "tumour [18F]-FDG uptake", "value": 48.5, "unit": "%"},
      {"measurement": "Patients with partial metabolic response ([18F]-FDG-PET)", "setting": "tumour [18F]-FDG uptake; of 33 patients", "value": 16},
      {"measurement": "Response by RECIST 1.1", "setting": "advanced solid tumours", "value": "no PR or CR"},
      {"measurement": "Involvement of CYP2C8, CYP3A4, and CYP3A5 in metabolism", "setting": "[3]", "value": "involved in the metabolism"},
      {"measurement": "Hyperglycaemia (on-target effect)", "setting": "glucose", "value": "observed as early as 4 h after dosing"},
      {"measurement": "Akt phosphorylation in platelet-rich plasma", "setting": "Akt phosphorylation", "value": "inhibited compared with that at baseline"}
    ]}
  ]
}
